# Test results published in article PMC8689225, “Cardiac ryanodine receptor N-terminal region biosensors identify novel inhibitors via FRET-based high-throughput screening” (The Journal of Biological Chemistry, 2021).
# Assays:
# [1] = target: T1, RyR2 (Sus scrofa, UniProt A0A5G2R1W3); assay: [3H]ryanodine binding to cardiac SR (CSR) vesicles; assay type: biochemical, pig
# T1 construct: from tissue; host or cells: porcine cardiac left ventricle, crude SR vesicles
# Method: Crude sarcoplasmic reticulum membrane vesicles were isolated from porcine longissimus dorsi muscle and porcine cardiac left ventricle tissue by differential centrifugation of homogenized tissue, as established previously ([65]). Skeletal heavy SR (HSR) vesicles, which are enriched with RyR1, were isolated by fractionation of crude skeletal SR vesicles using a discontinuous sucrose gradient, in accordance with our published work ([65]). All vesicles were flash-frozen and stored at −80 °C.
# In 96-well plates, skeletal SR membranes (HSR, 1 mg/ml) and cardiac SR membranes (CSR, 3 mg/ml) were preincubated with 1% DMSO or hit compound for 30 min at 22 °C in a solution containing 150 mM KCl, 5 mM GSH, 1 μg/ml Aprotinin/Leupeptin, 1 mM EGTA, and 65 μM or 1.02 mM CaCl2 (as determined by MaxChelator to yield 30 nM or 30 μM of free Ca^2+, respectively), 0.1 mg/ml of BSA, and 20 mM K-PIPES (pH 7.0). Nonspecific [^3H]ryanodine binding to SR was assessed by addition of 40 μM nonradioactively labeled ryanodine. Maximal [^3H]ryanodine binding was assessed by addition of 5 mM adenylyl-imidodiphosphate (AMP-PNP), and in the case of CSR, 20 mM caffeine was added. These control samples were each loaded over four wells per plate. Binding of [^3H]ryanodine (7.5 and 10 nM for CSR and HSR, respectively) was determined following a 3 h incubation at 37 °C and filtration through grade GF/B glass microfiber filters (Brandel Inc) using a Brandel Harvester. In 4 ml of Ecolite scintillation cocktail (MP biomedicals), [^3H]ryanodine retained on the filter was counted using a Beckman LS6000 scintillation counter.
# [2] = target: T2, NTR of mouse RyR2 (Mus musculus, UniProt E9Q401); assay: Surface plasmon resonance with isolated NTR (His-MBP tag); assay type: binding
# T2 construct: The NTR of mouse RyR2 (residues 1–547) was cloned and expressed as previously described; made in house; host or cells: Escherichia coli Rosetta (DE3) pLacI
# T2 sequence (E9Q401 1-547): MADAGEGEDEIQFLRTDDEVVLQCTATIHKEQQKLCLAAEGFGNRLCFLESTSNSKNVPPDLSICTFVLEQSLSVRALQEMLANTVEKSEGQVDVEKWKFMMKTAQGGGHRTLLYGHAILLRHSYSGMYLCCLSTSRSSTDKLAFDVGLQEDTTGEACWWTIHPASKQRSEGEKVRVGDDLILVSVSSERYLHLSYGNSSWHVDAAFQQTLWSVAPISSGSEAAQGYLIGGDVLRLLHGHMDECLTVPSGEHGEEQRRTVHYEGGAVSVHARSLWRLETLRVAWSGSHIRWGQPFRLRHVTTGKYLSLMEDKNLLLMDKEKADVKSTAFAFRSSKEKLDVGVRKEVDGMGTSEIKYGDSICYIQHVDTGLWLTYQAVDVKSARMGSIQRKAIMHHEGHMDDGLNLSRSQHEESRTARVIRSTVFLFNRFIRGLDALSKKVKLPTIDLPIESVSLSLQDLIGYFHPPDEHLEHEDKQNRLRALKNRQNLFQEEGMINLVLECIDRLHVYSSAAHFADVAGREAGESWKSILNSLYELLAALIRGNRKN
# Method: The SPR experiments were performed using a BIACORE S200 (GE Healthcare) equipped with a NTA sensor chip. NTR with His and MBP tags (>90% pure based on SDS-PAGE) was immobilized using affinity of the His tag to the sensor surface. The surfaces of the sensor chip were activated with 0.5 mM Ni^2+ solution at a flow rate of 10 μl/min. The NTR at a concentration of 30 μg/ml in 10 mM HEPES, 150 mM KCl, pH 7.4, was immobilized on flow cell 2; flow cell 1 was left blank to serve as a reference surface. To collect kinetic binding data, the hits in the running buffer (10 mM HEPES, 150 mM NaCl, 0.05% P20, pH 7.4, 1% DMSO) were injected over the two flow cells at concentrations of 1.5625, 3.125, 6.25, 12.5, 25, 50, and 100 μM at a flow rate of 30 μl/min and at a temperature of 25 °C. The complex was allowed to associate and dissociate for 60 and 60 s, respectively. The surfaces were regenerated with a 120 s injection of 350 mM EDTA. Data were collected at a rate of 1 Hz. The data were fit using the global data analysis option available within Biacore S200 Evaluation 1.0 software.
# [3] = single-cycle kinetics, global analysis
# T1 sequence (A0A5G2R1W3 20-4900): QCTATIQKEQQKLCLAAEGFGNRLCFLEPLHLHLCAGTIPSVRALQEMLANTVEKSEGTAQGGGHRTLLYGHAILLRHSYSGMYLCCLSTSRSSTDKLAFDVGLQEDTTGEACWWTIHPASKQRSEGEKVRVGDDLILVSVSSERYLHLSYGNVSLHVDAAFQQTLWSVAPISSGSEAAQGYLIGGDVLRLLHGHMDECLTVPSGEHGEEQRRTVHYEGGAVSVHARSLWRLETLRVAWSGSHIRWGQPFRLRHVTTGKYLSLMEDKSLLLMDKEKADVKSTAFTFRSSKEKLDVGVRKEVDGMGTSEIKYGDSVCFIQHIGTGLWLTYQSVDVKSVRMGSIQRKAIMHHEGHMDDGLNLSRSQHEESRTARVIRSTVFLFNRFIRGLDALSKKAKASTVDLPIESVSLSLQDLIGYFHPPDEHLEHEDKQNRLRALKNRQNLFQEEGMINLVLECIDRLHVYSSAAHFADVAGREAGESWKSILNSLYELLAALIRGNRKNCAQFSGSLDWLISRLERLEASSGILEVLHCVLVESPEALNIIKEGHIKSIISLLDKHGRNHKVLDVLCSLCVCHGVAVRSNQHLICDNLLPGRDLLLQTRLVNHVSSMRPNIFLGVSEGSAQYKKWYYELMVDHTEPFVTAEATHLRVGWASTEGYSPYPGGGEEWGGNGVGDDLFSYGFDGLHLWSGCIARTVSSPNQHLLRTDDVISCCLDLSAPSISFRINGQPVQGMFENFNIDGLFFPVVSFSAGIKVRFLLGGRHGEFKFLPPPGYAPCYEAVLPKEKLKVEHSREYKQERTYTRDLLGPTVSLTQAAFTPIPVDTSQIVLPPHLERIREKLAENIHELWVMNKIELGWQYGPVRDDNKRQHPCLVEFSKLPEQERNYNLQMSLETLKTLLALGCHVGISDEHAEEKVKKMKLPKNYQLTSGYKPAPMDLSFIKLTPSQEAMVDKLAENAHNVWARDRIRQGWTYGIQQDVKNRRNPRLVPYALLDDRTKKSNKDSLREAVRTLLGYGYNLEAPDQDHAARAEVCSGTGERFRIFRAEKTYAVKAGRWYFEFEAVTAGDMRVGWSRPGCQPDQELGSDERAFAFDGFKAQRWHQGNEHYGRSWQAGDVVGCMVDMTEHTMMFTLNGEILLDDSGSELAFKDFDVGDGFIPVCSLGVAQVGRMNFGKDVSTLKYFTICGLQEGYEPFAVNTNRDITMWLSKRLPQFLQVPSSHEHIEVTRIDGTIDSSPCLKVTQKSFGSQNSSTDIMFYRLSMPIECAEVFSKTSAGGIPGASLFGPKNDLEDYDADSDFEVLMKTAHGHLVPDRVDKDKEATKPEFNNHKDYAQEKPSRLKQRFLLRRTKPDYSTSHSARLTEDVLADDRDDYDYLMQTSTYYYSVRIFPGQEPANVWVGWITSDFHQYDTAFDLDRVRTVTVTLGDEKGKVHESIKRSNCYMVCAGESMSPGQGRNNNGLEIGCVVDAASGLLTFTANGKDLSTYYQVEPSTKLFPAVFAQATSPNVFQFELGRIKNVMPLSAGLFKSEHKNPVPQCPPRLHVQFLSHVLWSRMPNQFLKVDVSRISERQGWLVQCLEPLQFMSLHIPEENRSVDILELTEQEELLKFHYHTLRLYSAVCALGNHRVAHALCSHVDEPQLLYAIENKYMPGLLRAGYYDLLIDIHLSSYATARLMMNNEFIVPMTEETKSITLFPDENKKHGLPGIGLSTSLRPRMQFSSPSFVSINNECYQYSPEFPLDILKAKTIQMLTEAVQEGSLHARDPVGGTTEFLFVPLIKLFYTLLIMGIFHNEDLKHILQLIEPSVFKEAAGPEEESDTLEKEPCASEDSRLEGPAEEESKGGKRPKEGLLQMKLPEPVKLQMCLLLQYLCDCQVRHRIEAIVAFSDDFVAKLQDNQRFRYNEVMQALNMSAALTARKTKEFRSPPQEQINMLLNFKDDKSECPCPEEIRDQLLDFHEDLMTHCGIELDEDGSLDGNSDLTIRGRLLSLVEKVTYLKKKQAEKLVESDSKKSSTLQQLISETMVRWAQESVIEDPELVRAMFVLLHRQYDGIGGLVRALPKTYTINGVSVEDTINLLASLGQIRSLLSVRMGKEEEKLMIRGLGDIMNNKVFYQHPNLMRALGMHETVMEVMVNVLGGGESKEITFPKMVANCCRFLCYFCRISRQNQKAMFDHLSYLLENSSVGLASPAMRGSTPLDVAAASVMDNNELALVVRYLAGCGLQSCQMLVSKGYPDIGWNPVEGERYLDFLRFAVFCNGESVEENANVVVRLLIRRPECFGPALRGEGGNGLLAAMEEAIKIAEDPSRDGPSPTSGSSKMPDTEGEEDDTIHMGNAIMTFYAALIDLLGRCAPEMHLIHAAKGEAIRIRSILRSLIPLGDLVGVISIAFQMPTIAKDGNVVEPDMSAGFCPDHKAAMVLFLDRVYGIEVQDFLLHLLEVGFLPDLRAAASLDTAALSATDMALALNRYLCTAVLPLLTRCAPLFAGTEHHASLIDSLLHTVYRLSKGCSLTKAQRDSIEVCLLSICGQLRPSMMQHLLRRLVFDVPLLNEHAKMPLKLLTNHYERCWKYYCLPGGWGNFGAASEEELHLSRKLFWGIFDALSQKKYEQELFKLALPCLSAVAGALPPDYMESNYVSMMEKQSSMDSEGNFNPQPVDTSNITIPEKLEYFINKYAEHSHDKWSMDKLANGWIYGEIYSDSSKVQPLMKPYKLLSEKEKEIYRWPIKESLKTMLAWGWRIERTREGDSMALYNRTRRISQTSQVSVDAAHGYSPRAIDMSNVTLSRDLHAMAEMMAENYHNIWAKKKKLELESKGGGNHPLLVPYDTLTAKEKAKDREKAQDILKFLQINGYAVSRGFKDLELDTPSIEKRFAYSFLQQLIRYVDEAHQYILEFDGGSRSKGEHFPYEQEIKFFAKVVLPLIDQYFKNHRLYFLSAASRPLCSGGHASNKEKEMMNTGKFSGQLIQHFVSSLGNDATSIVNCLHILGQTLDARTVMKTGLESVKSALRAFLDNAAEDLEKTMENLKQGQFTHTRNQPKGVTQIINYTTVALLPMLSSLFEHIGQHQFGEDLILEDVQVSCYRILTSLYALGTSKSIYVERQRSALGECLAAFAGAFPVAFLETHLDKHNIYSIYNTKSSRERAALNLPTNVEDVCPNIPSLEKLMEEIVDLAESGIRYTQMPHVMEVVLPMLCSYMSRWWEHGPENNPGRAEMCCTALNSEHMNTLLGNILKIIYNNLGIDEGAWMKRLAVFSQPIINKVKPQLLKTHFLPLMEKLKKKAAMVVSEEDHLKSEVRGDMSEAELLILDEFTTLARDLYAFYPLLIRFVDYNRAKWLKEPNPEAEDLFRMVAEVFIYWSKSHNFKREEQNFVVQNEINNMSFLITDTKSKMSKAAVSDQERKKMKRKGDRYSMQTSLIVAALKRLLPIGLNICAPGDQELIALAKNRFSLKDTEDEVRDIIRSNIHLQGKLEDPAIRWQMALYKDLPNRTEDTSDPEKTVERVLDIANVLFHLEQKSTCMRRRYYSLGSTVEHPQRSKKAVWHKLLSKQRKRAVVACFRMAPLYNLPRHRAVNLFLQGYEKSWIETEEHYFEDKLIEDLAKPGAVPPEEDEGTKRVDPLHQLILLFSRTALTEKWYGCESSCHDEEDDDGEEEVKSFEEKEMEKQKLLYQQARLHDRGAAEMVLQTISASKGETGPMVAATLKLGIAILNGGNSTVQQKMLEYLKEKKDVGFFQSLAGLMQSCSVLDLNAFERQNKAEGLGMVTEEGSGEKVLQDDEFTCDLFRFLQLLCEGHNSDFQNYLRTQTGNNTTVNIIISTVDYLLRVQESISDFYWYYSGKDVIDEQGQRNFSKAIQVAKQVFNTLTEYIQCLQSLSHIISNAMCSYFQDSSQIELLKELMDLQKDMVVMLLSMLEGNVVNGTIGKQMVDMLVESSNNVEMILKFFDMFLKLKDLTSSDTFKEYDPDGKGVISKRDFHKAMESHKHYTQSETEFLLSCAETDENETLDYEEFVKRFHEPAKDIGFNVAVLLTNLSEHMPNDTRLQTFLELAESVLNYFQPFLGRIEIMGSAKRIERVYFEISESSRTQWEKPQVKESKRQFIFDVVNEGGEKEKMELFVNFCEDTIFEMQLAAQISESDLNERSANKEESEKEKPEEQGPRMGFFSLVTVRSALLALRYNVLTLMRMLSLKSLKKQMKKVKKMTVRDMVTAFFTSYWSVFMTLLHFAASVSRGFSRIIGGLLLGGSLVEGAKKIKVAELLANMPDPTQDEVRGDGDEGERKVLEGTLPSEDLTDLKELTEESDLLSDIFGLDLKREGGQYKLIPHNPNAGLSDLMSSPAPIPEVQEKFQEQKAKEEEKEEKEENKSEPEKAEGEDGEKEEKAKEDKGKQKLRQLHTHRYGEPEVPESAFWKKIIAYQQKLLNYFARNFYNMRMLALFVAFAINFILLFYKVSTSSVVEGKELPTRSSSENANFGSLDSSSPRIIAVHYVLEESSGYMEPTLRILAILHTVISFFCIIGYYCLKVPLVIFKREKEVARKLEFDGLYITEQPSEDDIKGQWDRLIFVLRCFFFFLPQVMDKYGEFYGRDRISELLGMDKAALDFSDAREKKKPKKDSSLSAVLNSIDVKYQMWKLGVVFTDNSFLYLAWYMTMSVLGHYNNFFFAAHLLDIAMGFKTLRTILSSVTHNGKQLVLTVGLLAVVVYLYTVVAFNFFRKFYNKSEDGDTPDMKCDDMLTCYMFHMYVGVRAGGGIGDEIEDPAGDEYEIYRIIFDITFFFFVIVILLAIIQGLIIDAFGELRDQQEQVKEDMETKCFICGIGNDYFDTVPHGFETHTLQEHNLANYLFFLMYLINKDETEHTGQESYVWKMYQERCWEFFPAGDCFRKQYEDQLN
smiles,measurement,setting,value
"CC(=O)O[C@H]1C[C@@]2(C)[C@@H](C[C@@H](O)[C@H]3[C@@]4(C)CC[C@@H](O)[C@@H](C)[C@@H]4CC[C@@]32C)/C1=C(\CCC=C(C)C)C(=O)O [FA, (2Z)-2-[(3R,4S,5S,8S,9S,10S,11R,13R,14S,16S)-16-acetyloxy-3,11-dihydroxy-4,8,10,14-tetramethyl-2,3,4,5,6,7,9,11,12,13,15,16-dodecahydro-1H-cyclopenta[a]phenanthren-17-ylidene]-6-methylhept-5-enoic acid]",EC50,"[1]; [Ca2+] 30 nM, Table S4, read-out: EC50, [3H]ryanodine binding, cardiac SR",1700 nM
same,effect on [3H]ryanodine binding to RyR2,"[1]; cardiac SR, 30 μM Ca2+",slight activation at high concentrations
same,KD (SPR),[2]; NTR with His-MBP tag,low micromolar
same,"KD (SPR), another component of heterogenous model fit",[2]; [3],nanomolar
same,"KD (SPR), one component of heterogenous model fit",[2]; [3],micromolar
